# Source: PubChem BioAssay (NCI)
#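 Exposure lasted 48 hours, with cells grown in 96-well plates and compounds tested at five concentrations. At the GI50, growth is halved. The concentration for full growth arrest is given as TGI.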
# Experiments:
# Experiment in all cases: NCI tumour cell line growth inhibition, 48 h
# [1] = system: 786-0 renal
# [2] = system: A549 NSCLC
# [3] = system: CAKI-1 renal
# [4] = system: HCC-2998 colon
# [5] = system: SK-OV-3 ovarian
# [6] = system: SN12C renal
# [7] = system: TK-10 renal
# [8] = system: HT29 colon
# [9] = system: SR leukemia
# [10] = system: PC-3 prostate
SMILES,TGI [1] [µM],TGI [2] [µM],TGI [3] [µM],TGI [4] [µM],TGI [5] [µM],TGI [6] [µM],TGI [7] [µM],TGI [8] [µM],TGI [9] [µM],GI50 [1] [µM],GI50 [2] [µM],GI50 [3] [µM],GI50 [4] [µM],GI50 [8] [µM],GI50 [5] [µM],GI50 [6] [µM],GI50 [9] [µM],GI50 [7] [µM],GI50 [10] [µM],TGI [10] [µM]
CC(=O)CC(=O)N(CCN(C(=O)CC(C)=O)c1ccccc1)c1ccccc1,> 100,> 100,> 100,> 100,> 100,> 100,> 100,,,,,,,,,,,,,
CN1CCC23c4c5ccc(O)c4OC2C(=NN=C2CCC4(O)C6Cc7ccc(O)c8c7C4(CCN6C)C2O8)CCC3(O)C1C5 (stereo not given),> 100,> 100,> 100,> 100,> 100,> 100,> 100,> 100,,,,,,,,,,,,
CC1=CC(=O)C(C)(C2=NC(C)(C)CO2)c2ccccc21 (stereo not given),> 100,> 100,> 100,,> 100,> 100,> 100,> 100,> 100,,,,,,,,,,,
O=c1c(O)c(-c2ccc(O)c(O)c2)oc2cc(O)ccc12,> 91.5,> 100,,41.9,59.9,56.4,> 88.8,98.8,99.8,,,,,,,,,,,
CCOC(=O)C1Cc2c(ccc(OC)c2OC)C(=O)C1N (stereo not given),> 100,> 100,> 100,> 100,> 100,> 100,> 100,> 100,> 100,,,,,,,,,,,
CCC[CH2][Sn]1([CH2]CCC)[O]C(c2ccccn2)S(=O)(=O)[O]1 (stereo not given),4.11,34.3,3.63,18.3,30.9,21.1,5.84,12.2,6.62,2.12,20,1.58,4.63,3.79,16.8,9.11,2.45,2.54,,
O=C(O)/C(Cl)=C(\Cl)Nc1cccc(C(F)(F)F)c1,> 100,> 100,> 100,> 100,> 100,> 100,> 100,> 100,,,,,,,,,,,,
CC1(C)CCC(=O)c2c(O)ccc(O)c21,> 100,> 100,> 100,> 100,> 100,> 100,> 100,> 100,,,,,,,,,,,,
CCCCCCCCCOC(=S)NC,33.5,65.1,43.1,35.3,45.7,36.9,54.6,42.2,,,,,,,,,,,,
CC(=O)[CH-]C(=O)c1ccccc1.CC(=O)[CH-]C(=O)c1ccccc1.O=C([O-])C[O-].O=C([O-])C[O-].[Ti+4],> 100,> 100,> 100,> 100,> 100,> 100,,91.7,,71.7,18.2,54.5,40.3,27.7,35.8,60.5,,,,
CCc1ccccc1NC(=O)/C(CC(=O)c1c(C)n([O-])c2ccccc2[n+]1=O)=N\NS(=O)(=O)c1ccc(C)cc1,> 100,> 100,,> 100,> 100,> 100,> 100,> 100,42.8,,,,,,,,,,,
CSc1ccc(-c2cn3ccsc3n2)c(O)c1,43.3,> 100,> 100,> 100,> 100,> 100,> 100,> 100,88.3,,,,,,,,,,,
C/C(=N\O)c1sc(-n2nc(-c3ccccc3)cc2-c2ccccc2)nc1C,15.8,25.3,27.3,18.2,,15.4,,19,28.6,,,,,,,,,,,
Cc1cc(N(CCC#N)CCC#N)ccc1/C=C1/CN(N2C(=O)/C(=C/c3ccc(N(CCC#N)CCC#N)cc3C)N=C2c2ccccc2)C(c2ccccc2)=N1,> 100,> 100,> 100,> 100,,> 100,75.9,> 100,> 100,,,,,,,,,,,
Cc1cc(C)c(C(=O)O)c(N)c1O,> 100,> 100,> 100,> 100,> 100,> 100,> 100,> 100,> 100,,,,,,,,,,,
O=C1c2ccccc2C(=O)N1/N=C\c1ccc(Br)cc1,> 100,> 100,> 10,> 100,> 100,> 100,> 10,> 100,> 100,> 100,> 100,,> 100,> 100,,> 100,> 100,,,

SMILES,TGI [1] [µM],TGI [2] [µM],TGI [3] [µM],TGI [4] [µM],TGI [5] [µM],TGI [6] [µM],TGI [7] [µM],TGI [8] [µM],TGI [9] [µM],GI50 [1] [µM],GI50 [2] [µM],GI50 [3] [µM],GI50 [4] [µM],GI50 [8] [µM],GI50 [5] [µM],GI50 [6] [µM],GI50 [9] [µM],GI50 [7] [µM],GI50 [10] [µM],TGI [10] [µM]
CSc1nc(NC2OCC(OC(C)=O)C(OC(C)=O)C2OC(C)=O)c(N=CC=Nc2c(NC3OCC(OC(C)=O)C(OC(C)=O)C3OC(C)=O)nc(SC)n(C)c2=O)c(=O)n1C (stereo not given),> 100,> 100,,> 100,> 100,> 100,> 100,> 100,> 100,,,,,,,,,,,
COc1cccc(/C=C(/C(=O)O)c2cc(OC)c(OC)c(OC)c2)c1,> 100,> 100,> 100,,,> 100,> 100,> 100,,,,,,,,,,,,
C[C@H](c1ccc(Cl)cc1N)N1C(=O)c2cc(I)ccc2N(CCCN2CCN(C)CC2)C(=O)[C@@H]1c1ccc(Cl)cc1,3.37,2.57,2.81,3.03,3.2,3.03,3.07,3.47,2.6,1.83,1.3,1.3,1.63,1.82,1.81,1.59,1.01,1.61,,
C[C@]12CCC[C@H](OC=O)C1(O)C[C@H](C(=O)O)CC2 (stereo not given in full),> 100,> 100,> 100,> 100,> 100,> 100,> 100,> 100,> 100,,,,,,,,,,,
CCOC(=O)C12CCCC1(O)N(NC(=O)c1cccc(Cl)c1)C(C)=C2C(=O)OC (stereo not given),> 100,> 100,> 100,> 100,> 100,> 100,,> 100,> 100,,,,,,,,,,,
Cc1nc(NC(=S)NC(=O)c2ccc(Cl)c(Cl)c2)sc1C(=O)/C=C/c1ccccc1[N+](=O)[O-],33.5,60.3,47.3,> 100,49.7,61.7,71.3,46,63.1,,,,,,,,,,,
CCCCCCCC[N+](C)(C)Cc1ccc(C[N+](C)(C)CCCCCCCC)cc1,> 100,> 100,> 100,> 100,> 100,> 100,> 100,> 100,> 100,,,,,,,,,,,
COc1ccc2cc(C(=O)c3ccccc3C(=O)O)ccc2c1,> 100,> 100,> 100,> 100,> 100,> 100,> 100,> 100,> 100,,,,,,,,,,,
CC1(C)CC23C(=O)N(c4ccccc4)C(=Nc4ccccc4)NC2=CC(C#N)=C(C#N)C3O1 (stereo not given),> 100,> 100,> 100,> 100,,> 100,> 100,> 100,,,,,,,,,,,,
Nn1c(CCCl)nc2c(Br)cc(Br)cc2c1=O,81,> 100,> 93.2,> 100,> 94.1,> 84.2,> 100,> 100,72,,,,,,,,,,,
CCc1ccc(C2=C/C(=C/c3ccc(Cl)cc3)C(=O)N2CCc2ccc(S(N)(=O)=O)cc2)cc1,3.53,7.37,12.4,7.2,9.15,,7.37,4.58,,1.86,2.6,2.91,2.59,2.22,3.11,,,2.21,1.9,5.36
C/C(CC(=O)CCCC(=O)Nc1ccc(Cl)cc1Cl)=N/NC(=O)CC#N,> 100,> 100,> 100,> 100,> 100,> 100,> 100,> 100,,,,,,,,,,,,
CCOC(=O)/C(=C/c1ccc(OC)c(OC)c1)C(=O)c1ccccc1,> 100,90.2,31.8,32.5,73.1,,65.4,30.8,,,,,,,,,,,,
c1cncc(C2c3[nH]c4ccccc4c3CCN2CCCN2CCCCC2)c1 (stereo not given),> 100,> 100,> 100,> 100,> 100,> 100,> 100,> 100,> 100,,,,,,,,,,,
C=C(C)C1CC=C(C(=O)O)CC1 (stereo not given),4700,3470,4080,2340,> 5000,> 5000,> 5000,> 5000,4650,,,,,,,,,,,
COc1cc(C(=O)C/C(CCC(=O)Nc2ccccc2[N+](=O)[O-])=N\NC(=O)C(N)=O)ccc1O,> 100,> 100,> 100,,> 100,,> 100,> 100,> 100,,,,,,,,,,,
